Literature values as cited in patent publication US10561704B2, “Compositions and methods for treating neuropsychiatric disorders using an endothelin-B receptor agonist” (MIDWESTERN UNIVERSITY, priority 2013, dated 2020).
Where a SMILES comes first, the peptide text is derived from it.

Test system: Aβ treated rats
Settings: Briyal et al., 2011; cited from earlier work

CC(C)C[C@@H]1NC(=O)[C@@H](C(C)C)NC(=O)[C@@H]2CCCN2C(=O)[C@@H](CC(=O)O)NC(=O)[C@@H](Cc2c[nH]c3ccccc23)NC1=O [BQ123] (HELM PEPTIDE1{L.[dW].[dD].P.[dV]}$PEPTIDE1,PEPTIDE1,1:R1-5:R2$$$V2.0)
Aβ induced oxidative stress and cognitive deficits: prevent

Cc1noc(NS(=O)(=O)c2cccc3c(N(C)C)cccc23)c1C [BMS182874]
Aβ induced oxidative stress and cognitive deficits: prevent
